The text below walks through data of the supplement of paper PMC3937590.

What all share (assay): -log10 GI50 (growth inhibition 50%) (-log10(M)); higher = more potent growth inhibition
Assay [1] has as its system AU565. The method in brief: (§1)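 Breast cancer cell lines were treated with each compound for 72 hours at nine doses in 1:5 serial dilution, in triplicate, and luminescence was read against a time-zero plate. A Gompertz curve was fitted to the dose-response data by nonlinear least squares to obtain GI50, the molar concentration giving the set level of growth inhibition, which is reported as its negative logarithm. The logarithm is base 10, and values equal to the top dose carry a < qualifier.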

Assay [2] has as its system BT20. The method in brief:
as §1

For assay [3], the system named is BT549. The method in brief:
as §1

The subject of assay [4] is CAMA1. The essentials: as §1
In assay [5] the test system is HCC1395. The method in brief:
as §1

Assay [6] relates to HCC1569. The method in brief:
as §1

For assay [7], the system named is HCC1806. The method in brief: as §1
Assay [8] relates to MCF10A. The essentials:
as §1

Assay [9] has as its system MCF10F. The method in brief: as §1
Assay [10] concerns MDAMB134VI. The essentials:
as §1

Assay [11] has as its system MDAMB361. The method in brief: as §1
Assay [12] has as its system MX1. The method in brief:
as §1

Assay [13] has as its system SKBR3. The essentials: as §1
Assay [14] deals with SUM149PT. The essentials: as §1
Assay [15] concerns SUM229PE. The essentials:
as §1

Assay [16] relates to SUM52PE. The essentials:
as §1

For assay [17], the system named is T47D_KBluc. The essentials:
as §1

Assay [18] deals with ZR751. The essentials: as §1
In assay [19] the test system is ZR75B. The essentials: as §1
The subject of assay [20] is UACC812. The essentials:
as §1

Where only a bound is given, the exact number is not on record here.

For the compound `CC(=O)NCC(=O)N1[C@@H]2CC[C@H]1c1ccc(Nc3ncc(C(F)(F)F)c(NC4CCC4)n3)cc12`, the “-log10 GI50” value in assay [1] is 5.57; in assay [2], 5.9; in assay [3], 5.47; in [4], 5.44; in [5] it was 5.96; in assay [6], 6.07. The “-log10 GI50” value in assay [7] amounted to 5.55; in [8] it was 6.36; in [9], 6.28; in assay [10] it was 5.3; in assay [11], 5.23; in [12], 7. Further, the “-log10 GI50” value in assay [13] worked out at 5.38; in assay [14], 6.08; in [15] it was 6.1; in [16] it was 7.57; in assay [17], 5.4; in assay [18] it was 4.99. The “-log10 GI50” value in assay [19] stood at 5.94.

As to `CCNCCCCNCCCCNCCCCNCCCCNC/C=C/CNCCCCNCCCCNCCCCNCCCCNCC`, the “-log10 GI50” value is 6.31 in assay [1]; 6.66 in assay [2]; 6.53 in assay [3]; 6.43 in [4]; 6.3 in assay [5]; 4.74 in assay [6]. Besides, the “-log10 GI50” value in [7] came to 6.71; in [8] it was 5.9; in assay [9], 5.96; in assay [10] it was 6.38; in [11] it was 5.78; in assay [12], 6.57. Besides, the “-log10 GI50” value is 5.31 in assay [13]; 6.53 in [14]; 6.24 in assay [15]; 6.81 in assay [16]; 6.46 in [17]; 6.78 in assay [20]. For the same compound, the “-log10 GI50” value was determined as 6.82 in assay [18] and 6.38 in [19].

As to `CNC(=O)c1c(F)cccc1Nc1nc(Nc2cc3c(cc2OC)CCN3C(=O)CN(C)C)nc2[nH]ccc12`, the “-log10 GI50” value in assay [1] is 5.63; in [2] it was 4.86; in assay [3], 5.21; in [4] it was 5.08; in assay [5] it was 5.33; in assay [6], 5.12. The “-log10 GI50” value was 4.09 in assay [7]; 5.45 in assay [8]; 6.31 in [9]; 4.96 in assay [10]; 4.84 in assay [11]; 5.29 in [12]. The “-log10 GI50” value in [13] amounted to 4.99; in assay [14], 5.41; in assay [15] it was 6.2; in [16], 5.68; in assay [17], 5.13; in assay [20], 5.31. Also, the “-log10 GI50” value in assay [18] was determined as 5.17; in assay [19] it was 5.01.

Regarding `COc1cc2c(Nc3ccc(NC(=O)c4ccccc4)cc3)ncnc2cc1OCCCN1CCOCC1`, the “-log10 GI50” value is 5.82 in assay [1]; 5.33 in assay [2]; 5.47 in assay [3]; 5.02 in assay [4]; 5.3 in assay [5]; 5.69 in [6]. Besides, the “-log10 GI50” value is under 4 in assay [7]; under 4.48 in assay [8]; under 4 in [9]; 5.03 in [10]; 5.41 in assay [11]; 6.35 in assay [12]. Further, the “-log10 GI50” value in assay [13] is 4.76; in assay [14], under 4; in assay [15], 5.93; in assay [16], 5.46; in assay [17], under 4.3; in assay [20], 5.41. For the same compound, in assay [18], the “-log10 GI50” value is 5.47.

Consider `Cn1ncc(Cl)c1-c1cc(C(=O)N[C@H](CN)Cc2ccc(F)c(F)c2)oc1Cl`, for which the “-log10 GI50” value in [1] came out at 6.09; in assay [2], 5.25; in assay [3] it was 5.45; in [4], 7.02; in assay [6], 6.55; in assay [7], 5.25. The “-log10 GI50” value in assay [8] was 5.03; in assay [9], 5.45; in assay [10], 5.2; in assay [11], 6.65; in [12] it was 8.11; in assay [13], 6.93. In addition, the “-log10 GI50” value was 7.42 in assay [14]; 5.59 in [15]; 6.3 in [16]; 6.48 in assay [17]; 7.18 in assay [20]; 8.26 in assay [18].
